Experimental data as given in US10617677B2, “Nuclear transport modulators and uses thereof” (Biogen MA Inc., priority 2012, dated 2020).
pIC50: −log10 of the molar value. Entries after “also recorded” stand apart in the source; their conditions may differ.

Tests used:
skin wounds = assay: Longitudinal full thickness skin incision wound model in C57BL mice; format: in vivo
Description: The effects of Compound 1 on skin wound healing were studied in a mouse longitudinal full thickness skin incision wound model. Upon arrival, animals were identified by ear tags, weighed and left to acclimate for several days before initiation of the experiment. On the day of wounding, mice were weighed and divided into 6 experimental groups with 6 animals per group, in accordance to weight differences stratified randomization. Prior to the surgical procedure, mice were anesthetized with isoflurane and the back of the animals was trimmed. Full thickness longitudinal incisions of 20 mm were performed using a standard scalpel blade on the backs of the animals (parallel to the backbone). […] At this stage, the widest area of the wound was measured to establish a baseline wound width. […] At the end of the experiment, 8 days post wounding, mice were sacrificed, wound widths were measured and biopsies of the wound area were collected and subjected to analysis. […]
As a part of a daily morphological assessment, photo-documentation was performed using a digital camera FinePix S700. […] When evaluated on the same day as treatment groups, control group wounds appeared larger in size and were covered with thick cracked scabs that exposed a non-healed wound area (observed as reddish and pink areas) both at the edges and in the middle of the wounds. […]

NF-κB = NF-κB transcriptional activity in TNFα-induced HeLa cells; format: cell-based; conditions: Homo sapiens, 1 h pre-treatment, then 4 h of 20 ng/mL TNFα, average of three experiments, read-out: IC50, inhibition of NF-κB transcriptional activity
Method: The compounds were tested on HeLa (adenocarcinoma) cells to quantify their ability to inhibit NF-κB transcriptional activity. NF-κB activity was induced in HeLa cells by TNFα, and then the compounds were added to inhibit the induced NF-κB activity. Half maximal inhibitory concentrations (IC50) of several compounds, namely Compound 1, Compound 2 and Compound 12, were determined by dose response studies.
HeLa cells were plated in a 12-well plate (200,000 cells/well) and cultured in Eagle's Minimal Essential medium (EMEM) from Lonza supplemented with 10% heat-inactivated fetal bovine serum (Invitrogen) and 50 μg/mL penicillin/streptomycin (Invitrogen), and were left overnight to attach. Cells were pre-treated with serial diluted (started at 30 µM; 1:3 dilution) compounds for 1 h and then exposed to 20 ng/mL TNFα (Peprotech) for 4 h in serum free media. After the treatment, the cells were washed with PBS (Invitrogen), and lysed with RIPA buffer (Themo Scientific). The transcription activity of NF-κB in the cells was measured by Chemiluminescent Transcription Factor Assay kit (Thermo Scientific Catalog #89859), according to the manufacturer's instruction. Briefly, 1.5 mg/mL of RIPA lysed whole cell extract from each treatment were incubated in a 96-well plate bound with NF-κB biotinylated-consensus sequence. The active NF-κB transcription factor bound to the consensus sequence was incubated with NF-κB p65 primary antibody and then with a secondary HRP-conjugated antibody. A chemiluminescent substrate was added to the wells and the resulting signal was detected using a luminometer. Three separate experiments were analyzed for each concentration of the IC50 curves. XLFit model 205 was used to calculate IC50 curves.
Inhibition of NF-κB transcriptional activity was measured by serial dilutions of Compound 1, Compound 2 and Compound 12 after 1 h of compound pre-treatment followed by 4 h of 20 ng/mL TNFα exposure. Three independent experiments were scored for each concentration, with the average being presented here.

[1] = test system: collagen-induced arthritis; assay: Collagen-induced arthritis (CIA) in Lewis rats; format: in vivo; conditions: 4 mg/kg PO QoD from onset to day 28
Method: Forty (40) female Lewis rats (BK), aged 6 to 8 weeks with a pre-treatment body weight range of 180 to 200 g were divided randomly into four (4) groups (Groups A-D) of ten (10) rats each. The rats in Groups B to D were immunized intradermally with bovine CII in IFA at three sites near the base of the tail and over the back with 500 μL of the emulsion on day 0 (200 μL, 200 μL, 100 μL for each site). On day 7, the rats in Groups B-D were given booster injections with the same amount of the emulsion intradermally near the former injection sites. […] Rats were weighed daily and a drug holiday was given to an animal when a weight loss of greater than 13%. CIA development was evaluated via macroscopic scoring and measurements of paw swelling. […] Foot volume was measured by plethysmometry on the same day of the arthritic measurement throughout the study period. The cubage of each hind paw and swelling rate were measured and using the following equation: Swelling Rate=(CN−C0)/C0×100%. […] The clinical scores were summed for each animal, and the total average of all animals in each group was expressed as the mean arthritic score. […] Prepared sections of hind paws were subjected to hematoxylin and eosin (H&E) staining.

| Structure (SMILES) | wound healing, morphological assessment (skin wounds; 4 or 7.5 mg/kg PO every other day, or 1 or 2.5 μM topical daily, Day 5 post-wounding) | incidence of tampering with wounds compared to vehicle treated mice (skin wounds; Compound 1 in PVP/Pluronic F-68 or Compound 1 in water) | pIC50 (NF-κB) | Clinical Scores, Joint Swelling and histological examination [1] | histopathology of hind paws (H&E) [1] |
| --- | --- | --- | --- | --- | --- |
| CC(C)(C)C(=O)NNC(=O)/C=C\n1cnc(-c2cc(C(F)(F)F)cc(C(F)(F)F)c2)n1 [Compound 1, (Z)-3-(3-(3,5-bis(trifluoromethyl)phenyl)-1H-1,2,4-triazol-1-yl)-N′-pivaloylacrylohydrazide] | positive effect; also recorded: better wound healing | reduced the incidence of tampering with wounds; also recorded: prevented tampering with wounds | 5.80 |  |  |
| O=C(/C=C\n1cnc(-c2cc(C(F)(F)F)cc(C(F)(F)F)c2)n1)NNC(=O)CN1CCOCC1 [Compound 2, (Z)-3-(3-(3,5-bis(trifluoromethyl)phenyl)-1H-1,2,4-triazol-1-yl)-N′-(2-morpholinoacetyl)acrylohydrazide] |  |  | 5.91 | therapeutic efficacy | relatively intact cartilage was found on the joint surface and pannus formation was minimal |
